# From patent US7799799B2, “Indolizine derivatives, method for preparing same, and therapeutic compositions comprising same” (Sanofi-Aventis, priority 2005, dated 2010)
# Where a name gives a salt, the structure may show the parent alone.
# How the values were obtained:
# [1] = at a pH of 3; cited from earlier work
# [2] = Solubility test at pH=4 from phosphate buffer pH 6 0.1M, by HPLC; format: physicochemical; settings: for solubility at 5 min: aqueous buffer, thermodynamic from solid, phosphate buffer pH 6 0.1M, HPLC, first figure of the S/pH cell, the pH of the sample is the second; for pH (of the solubility sample): second figure of the S/pH cell, pH noted for the solubility sample
# Description: The results for solubility, S, and pH are shown in the table below and are expressed in mg/ml.
# A phosphate buffer, pH6, 0.1M, was prepared by adding 6.15 ml of 0.1M Na2HPO4 to 43.85 ml of 0.1M NaH2PO4. The solution was made up to 100 ml with filtered water using a Millipore system (trade mark).
# Reference (Test Product in a Concentration in which the Latter is Soluble and which Acts as an Internal Reference)
# About 0.2 mg (in a boat) was weighed out exactly and diluted in 1 ml of H2O/CH3CN: (50:50), i.e. 0.2 mg/ml, then the sample was subjected to ultrasound for 5 minutes.
# About 4 mg (in a boat) was weighed out exactly and diluted in 400 μl (i.e. 10 mg/ml) of pH6 phosphate buffer (0.1M), then the sample was subjected to ultrasound for 5 minutes.
# The pH was noted and if the pH was below 4, 1 μl of NaOH 1N was added (from 1 μl in 1 μl) until the pH was more than 4, then the pH was noted again. The solution (0.45 μm) was filtered then if necessary diluted with the phosphate buffer pH6. (If the product re-precipitated after diluting, the diluted sample was ignored, the mother solution was used and the solubility was determined at a wavelength other than λmax, to avoid saturating the signal.
# The solubility of the compound was then determined by HPLC under the following conditions:
# Instrument: Agilent 1100 chromatograph
# Column temperature: 30° C. Flow rate: 0.8 ml/min Detection: λ=230 nm Injection volume: 5 μl
solubility at 5 min [2],pH (of the solubility sample) [2],Structure (SMILES),solubility in water S [1]
9930 µg/mL,4.3,"CCCCc1cc2ccccn2c1C(=O)c1ccc(CCCN2C[C@@H](C)N(C)[C@@H](C)C2)cc1 [compound 40, (2-butylindolizin-3-yl)(4-{3-[(3R,5S)-3,4,5-trimethylpiperazin-1-yl]propyl}phenyl)methanone hydrochloride]",
7190 µg/mL,3.95,"CCCCc1cc2ccccn2c1C(=O)c1ccc(CCCN(CCOC)CCOC)cc1 [compound 41, (4-{3-[bis(2-methoxyethyl)amino]propyl}phenyl)(2-butylindolizin-3-yl)methanone oxalate]",
1660 µg/mL,5.18,"CCCCc1cc2ccccn2c1C(=O)c1ccc(CCCN2CCCCC2)cc1 [compound 42, (2-butylindolizin-3-yl)[4-(3-piperidin-1-ylpropyl)phenyl]methanone oxalate]",
4460 µg/mL,5.65,"CCCCc1cc2ccc(C)cn2c1C(=O)c1ccc(CCCN(CCC)CCC)cc1 [compound 43, (2-butyl-6-methylindolizin-3-yl){4-[3-(dipropylamino)propyl]phenyl}methanone hydrochloride]",
> 10000 µg/mL,6.05,"CCCCc1cc2ccc(CC)cn2c1C(=O)c1ccc(CCCN(CCC)CCC)cc1 [compound 44, (2-butyl-6-ethylindolizin-3-yl){4-[3-(dipropylamino)propyl]phenyl}methanone hydrochloride]",

# More lines, now with the values behind:
Structure (SMILES),solubility at 5 min [2],pH (of the solubility sample) [2],solubility in water S [1]
CCCCc1oc2ccc(NS(C)(=O)=O)cc2c1C(=O)c1ccc(OCCCN(CCCC)CCCC)cc1 [Dronedarone],,,247 µg/mL
"CCCCc1cc2ccccn2c1C(=O)c1ccc(CCCN(CCC)CC2CC2)cc1 [compound 35, (2-butylindolizin-3-yl)(4-{3-[(cyclopropylmethyl)(propyl)amino]propyl}phenyl)methanone hydrochloride]",4400 µg/mL,4.75,
"CCCNCCCCc1ccc(C(=O)c2c(CCC)cc3ccccn23)cc1.Cl [compound 36, {4-[4-(propylamino)butyl]phenyl}(2-propylindolizin-3-yl)methanone hydrochloride]",2240 µg/mL,6.3,
"CCCCc1cc2ccccn2c1C(=O)c1ccc(CCCNCCC)cc1.Cl [compound 37, (2-butylindolizin-3-yl){4-[3-(propylamino)propyl]phenyl}methanone hydrochloride]",1780 µg/mL,7.14,
"CCCCc1cc2ccccn2c1C(=O)c1ccc(CCCN(C)C)cc1.Cl [compound 38, (2-butylindolizin-3-yl){4-[3-(dimethylamino)propyl]phenyl}methanone hydrochloride]",1420 µg/mL,,
"CCCCc1cc2ccccn2c1C(=O)c1ccc(CCCN2C[C@@H](C)N[C@@H](C)C2)cc1 [compound 39, (2-butylindolizin-3-yl)(4-{3-[(3R,5S)-3,5-dimethylpiperazin-1-yl]propyl}phenyl)methanone hydrochloride]",> 10000 µg/mL,4.22,
